{"source": "patent US6969721B2", "about": "“Tricyclic-2-pyridone compounds useful as HIV reverse transcriptase inhibitors” (Bristol-Myers Squibb Pharma, priority 2000, dated 2005)", "tested_on": "HIV-1 (RF)", "assay": "HIV RNA assay, microplate based compound evaluation in HIV-1 infected MT-2 cells", "assay_type": "cell-based", "conditions": "Human immunodeficiency virus 1, MT2, 72 h; HIV-1 (RF) in MT-2 cells, 3 days culture; virus dilutions selected to give this value; read-out: IC90 value (concentration of compound required to reduce the HIV RNA level by 90%)", "procedure": "MT-2 and MT-4 cells were maintained in RPMI 1640 supplemented with 5% fetal calf serum (FCS) for MT-2 cells or 10% FCS for MT-4 cells, 2 mM L-glutamine and 50 μg/mL gentamycin, all from Gibco. HIV-1 RF was propagated in MT-4 cells in the same medium. Virus stocks were prepared approximately 10 days after acute infection of MT-4 cells and stored as aliquots at −70° C. Infectious titers of HIV-1(RF) stocks were 1-3×10^7 PFU (plaque forming units)/mL as measured by plaque assay on MT-2 cells (see below) Each aliquot of virus stock used for infection was thawed only once.\nFor evaluation of antiviral efficacy, cells to be infected were subcultured one day prior to infection. […]\nCell lysates or purified RNA in 3 M or 5 M GED were mixed with 5 M GED and capture probe to a final guanidinium isothiocyanate concentration of 3 M and a final biotin oligonucleotide concentration of 30 nM. […] Immobilized alkaline phosphatase activity was detected by addition of 100 μL of 0.2 mM 4-methylumbelliferyl phosphate (MUBP, JBL Scientific) in buffer (2.5 M diethanolamine pH 8.9 (JBL Scientific), 10 MM MgCl2, 5 mM zinc acetate dihydrate and 5 mM N-hydroxyethyl-ethylene-diamine-triacetic acid). […] Fluorescence at […] was measured using a microplate fluorometer (Dynateck) exciting at […]. […]", "data": [{"smiles": "Nc1ccn([C@H]2CC[C@@H](CO)O2)c(=O)n1", "note": "[ddC, 2′,3′-dideoxycytidine]", "values": [{"measurement": "IC90", "value": 0.2, "unit": "µg/mL"}]}]}
